According to the supplement of paper PMC11061612:

Legend:
[1] = compound: Cn1cnc2c(F)c(Nc3ccc(Br)cc3Cl)c(C(=O)NOCCO)cc21 [Selumetinib]; details: max 10 µM
How it was run: (§1)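 Cancer cell lines in 1536-well plates (7.5 μl DMEM/F12 or RPMI, 10% FBS) were held 24 hours at 37°C and 5% CO2 and then dosed for 72 hours at a final DMSO of typically 0.2%. Viability was taken from CellTiter-Glo 2.0 luminescence, scaled between blank-well and DMSO-well means. Curves were fitted as two-parameter logistic models with a non-linear mixed effects model, from which the single-agent IC50 was taken.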

[2] = compound: C[C@@H](c1ccc2nccn2c1)n1nnc2ncc(-c3cnn(C)c3)nc21 [Savolitinib]; details: max 1 µM
How it was run: as §1

[3] = compound: C[C@@H](Oc1cc(-c2cnn(C3CCNCC3)c2)cnc1N)c1c(Cl)ccc(F)c1Cl [Crizotinib]; details: max 10 µM
How it was run: as §1

[4] = compound: Cc1nc(-c2cn3c(n2)-c2ccc(-c4cnn(C(C)(C)C(N)=O)c4)cc2OCC3)n(C(C)C)n1 [Taselisib]; details: max 10 µM
How it was run: as §1

[5] = compound: CC1=C(C(=CC=C1)Cl)NC(=O)C2=CN=C(S2)NC3=CC(=NC(=N3)C)N4CCN(CC4)CCO [Dasatinib]; details: max 2 µM
How it was run: as §1

[6] = compound: CC1=CN2[C@@H](C1)C=NC3=CC(=C(C=C3C2=O)OC)OCCCCCOC4=C(C=C5C(=C4)N=C[C@@H]6CC(=CN6C5=O)C)OC [SG3199]; details: max 0.001 µM
How it was run: as §1

[7] = compound: N#Cc1cnc(Nc2cc(NC[C@H]3CNCCO3)c(C(F)(F)F)cn2)cn1 [SRA737]; details: max 10 µM
How it was run: as §1

[8] = compound: O=C(c1cc(Cc2n[nH]c(=O)c3ccccc23)ccc1F)N1CCN(C(=O)C2CC2)CC1 [Olaparib]; details: max 10 µM
How it was run: as §1

[9] = compound: O=c1[nH]cc(F)c(=O)[nH]1 [5-Fluorouracil]; details: max 20 µM
How it was run: as §1

[10] = compound: COc1cccc(OCCCN)c1-c1cc(Nc2cnc(C#N)cn2)n[nH]1 [Prexasertib]; details: max 1 µM
How it was run: as §1

[11] = compound: C1CN(CCC1(C(=O)N[C@@H](CCO)C2=CC=C(C=C2)Cl)N)C3=NC=NC4=C3C=CN4 [AZD5363]; details: max 10 µM
How it was run: as §1

[12] = compound: CCN(CCO)CCCOc1ccc2c(Nc3cc(CC(=O)Nc4cccc(F)c4)[nH]n3)ncnc2c1 [AZD2811]; details: max 1 µM
How it was run: as §1

[13] = compound: COc1cc([C@@H]2c3cc4c(cc3[C@@H](O[C@@H]3O[C@@H]5CO[C@@H](C)O[C@H]5[C@H](O)[C@H]3O)[C@H]3COC(=O)[C@H]23)OCO4)cc(OC)c1O [Etoposide]; details: max 10 µM
How it was run: as §1

[14] = compound: CC(=O)c1c(C)c2cnc(Nc3ccc(N4CCNCC4)cn3)nc2n(C2CCCC2)c1=O [Palbociclib]; details: max 10 µM
How it was run: as §1

[15] = compound: CC(=O)Nc1cccc(-n2c(=O)n(C3CC3)c(=O)c3c(Nc4ccc(I)cc4F)n(C)c(=O)c(C)c32)c1 [Trametinib]; details: max 1 µM
How it was run: as §1

[16] = compound: COc1cccc2c1C(=O)c1c(O)c3c(c(O)c1C2=O)C[C@@](O)(C(=O)CO)C[C@@H]3O[C@H]1C[C@H](N)[C@H](O)[C@H](C)O1 [Doxorubicin]; details: max 1 µM
How it was run: as §1

[17] = compound: NC1(c2ccc(-c3nc4ccn5c(=O)[nH]nc5c4cc3-c3ccccc3)cc2)CCC1 [MK-2206]; details: max 10 µM
How it was run: as §1

[18] = compound: C[C@@H]1COCCN1C2=NC(=NC(=C2)C3(CC3)[S@](=N)(=O)C)C4=C5C=CNC5=NC=C4 [AZD6738]; details: max 10 µM
How it was run: as §1

[19] = compound: COc1cc2ncnc(Nc3ccc(F)c(Cl)c3)c2cc1OCCCN1CCOCC1 [Gefitinib]; details: max 10 µM
How it was run: as §1

[20] = compound: COc1cc(Nc2ncc3c(n2)-c2ccc(Cl)cc2C(c2c(F)cccc2OC)=NC3)ccc1C(=O)O [Alisertib]; details: max 10 µM
How it was run: as §1

[21] = compound: C[C@@H](Nc1cc(F)cc(F)c1)c1cc(C(=O)N(C)C)cc2c(=O)cc(N3CCOCC3)oc12 [AZD8186]; details: max 10 µM
How it was run: as §1

[22] = compound: CS(=O)(=O)CCNCc1ccc(-c2ccc3ncnc(Nc4ccc(OCc5cccc(F)c5)c(Cl)c4)c3c2)o1 [Lapatinib]; details: max 10 µM
How it was run: as §1

[23] = compound: COc1nnc2ccc(N3CCC(c4ccc(OCCN5CCN(C)C(=O)[C@H]5C)cc4)CC3)nn12 [AZD5153]; details: max 1 µM
How it was run: as §1

[24] = compound: C=CCn1c(=O)c2cnc(Nc3ccc(N4CCN(C)CC4)cc3)nc2n1-c1cccc(C(C)(C)O)n1 [AZD1775]; details: max 3 µM
How it was run: as §1

[25] = compound: C1CC(C1)(C(=O)[O-])C(=O)[O-].N.N.[Pt+2] [Carboplatin]; details: max 10 µM
How it was run: as §1

[26] = compound: CN(C)CCCOc1ccc(-c2ccc3ncc4c(c3c2)n(C2CCOCC2)c(=O)n4C)cn1 [AZD0156]; details: max 3 µM
How it was run: as §1

[27] = compound: Cc1cc2ncnn2cc1Nc1ncc2c(n1)n(C1CCOCC1)c(=O)n2C [AZD7648]; details: max 10 µM
How it was run: as §1

[28] = compound: Cc1c2c(nn1C)CSCc1cc(n(C)n1)CSc1cc(c3ccccc3c1)OCCCc1c(C(=O)O)n(C)c3c-2c(Cl)ccc13 [AZD5991]; details: max 1 µM
How it was run: as §1

[29] = compound: CN(CC[C@H](CSC1=CC=CC=C1)NC2=C(C=C(C=C2)S(=O)(=O)NC(=O)C3=CC=C(C=C3)N4CCC(CC4)[C@H](C5=CC=CC=C5C6=CC=C(C=C6)Cl)O)S(=O)(=O)C(F)(F)F)CCO [AZD4320]; details: max 1 µM
How it was run: as §1

[30] = compound: Nc1ccn([C@@H]2O[C@H](CO)[C@@H](O)C2(F)F)c(=O)n1 [Gemcitabine]; details: max 0.3 µM
How it was run: as §1

[31] = compound: O=C(Nc1ccc2[nH]nc(-c3ccncc3)c2c1)[C@@H]1CCN(CC(=O)N2CCN(c3ccc(-c4ncccn4)cc3)CC2)C1; details: max 5 µM
How it was run: as §1

[32] = compound: CC(=O)O[C@H]1C(=O)[C@@]2(C)[C@H]([C@H](OC(=O)c3ccccc3)[C@]3(O)C[C@H](OC(=O)[C@H](O)[C@@H](NC(=O)c4ccccc4)c4ccccc4)C(C)=C1C3(C)C)[C@]1(OC(C)=O)CO[C@@H]1C[C@@H]2O [Paclitaxel]; details: max 3 µM
How it was run: as §1

[33] = compound: CC1(C)CCC(CN2CCN(c3ccc(C(=O)NS(=O)(=O)c4ccc(NCC5CCOCC5)c([N+](=O)[O-])c4)c(Oc4cnc5[nH]ccc5c4)c3)CC2)=C(c2ccc(Cl)cc2)C1 [Venetoclax]; details: max 1 µM
How it was run: as §1

[34] = compound: CCc1c2c(nc3ccc(O)cc13)-c1cc3c(c(=O)n1C2)COC(=O)[C@]3(O)CC [SN-38]; details: max 0.3 µM
How it was run: as §1

[35] = compound: CC(C)n1c(=O)n(C)c2cnc3cc(F)c(-c4ccc(OCCCN5CCCCC5)nc4)cc3c21 [AZD1390]; details: max 0.3 µM
How it was run: as §1

Cell Line	IC50, cell viability 72 h [1]	IC50, cell viability 72 h [2]	IC50, cell viability 72 h [3]	IC50, cell viability 72 h [4]	IC50, cell viability 72 h [5]	IC50, cell viability 72 h [6]	IC50, cell viability 72 h [7]	IC50, cell viability 72 h [8]	IC50, cell viability 72 h [9]	IC50, cell viability 72 h [10]	IC50, cell viability 72 h [11]	IC50, cell viability 72 h [12]	IC50, cell viability 72 h [13]	IC50, cell viability 72 h [14]	IC50, cell viability 72 h [15]	IC50, cell viability 72 h [16]	IC50, cell viability 72 h [17]	IC50, cell viability 72 h [18]	IC50, cell viability 72 h [19]	IC50, cell viability 72 h [20]	IC50, cell viability 72 h [21]	IC50, cell viability 72 h [22]	IC50, cell viability 72 h [23]	IC50, cell viability 72 h [24]	IC50, cell viability 72 h [25]	IC50, cell viability 72 h [26]	IC50, cell viability 72 h [27]	IC50, cell viability 72 h [28]	IC50, cell viability 72 h [29]	IC50, cell viability 72 h [30]	IC50, cell viability 72 h [31]	IC50, cell viability 72 h [32]	IC50, cell viability 72 h [33]	IC50, cell viability 72 h [34]	IC50, cell viability 72 h [35]
LoVo (Colorectal Carcinoma)	5.81 µM	> 1 µM	> 10 µM	5.55 µM	> 2 µM	> 0.001 µM	8.63 µM	> 10 µM	> 20 µM	0.0244 µM	7.27 µM	> 1 µM	> 10 µM	7.65 µM	0.156 µM	> 1 µM	5.23 µM	1.17 µM	> 10 µM	> 10 µM	0.952 µM	> 10 µM	> 1 µM	0.192 µM	> 10 µM	> 3 µM	> 10 µM	> 1 µM	> 1 µM	0.138 µM	1.68 µM	0.0703 µM	> 1 µM	0.108 µM	> 0.3 µM
Mewo (Melanoma)	> 10 µM	> 1 µM	> 10 µM	> 10 µM	> 2 µM	> 0.001 µM	> 10 µM	> 10 µM	> 20 µM	0.413 µM	> 10 µM	> 1 µM	> 10 µM	> 10 µM	0.569 µM	> 1 µM	> 10 µM	> 10 µM	> 10 µM	> 10 µM	> 10 µM	> 10 µM	> 1 µM	1.42 µM	> 10 µM	> 3 µM	> 10 µM	> 1 µM	> 1 µM	> 0.3 µM	3.57 µM	0.653 µM	> 1 µM	> 0.3 µM	> 0.3 µM
NB14 (Neuroblastoma)	> 10 µM	> 1 µM	1.28 µM	> 10 µM	> 2 µM	> 0.001 µM	0.677 µM	> 10 µM	> 20 µM	0.00403 µM	> 10 µM	0.0249 µM	0.849 µM	2.36 µM	0.57 µM	0.174 µM	9.15 µM	1.35 µM	> 10 µM	0.0251 µM	> 10 µM	> 10 µM	0.451 µM	0.293 µM	> 10 µM	> 3 µM	> 10 µM	0.566 µM	0.126 µM	0.128 µM	> 5 µM	< 0.003 µM	0.726 µM	0.00504 µM	> 0.3 µM
